In patent US20250170248A1, “SMARCA DEGRADERS AND USES THEREOF” (Kymera Therapeutics, Inc., priority 2021, published 2025):

Legend:
Assay type in all cases: cell-based
SMARCA4 = target: T1, SMARCA4 (Homo sapiens, UniProt P51532); experiment: SMARCA4 Western blot degradation in MV4-11 cells; details: for Dmax: MV4-11, MV4-11 cells, read-out: SMARCA4 MSD MV411 degradation 24 h: average Dmax %; for Dmax / DC50: 24 h; for DC50 / SMARCA4 MSD MV411 degradation 24 h: average Dmax %: MV4-11 cells; for DC50: read-out: SMARCA4 MSD MV411 degradation 24 h: Mean external-Abs DC50
T1 construct: SMARCA2/SMARCA4 protein degradation selectivity in MV4-11 cells; endogenous in cells; host or cells: MV4-11
How it was run: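 Protein levels quantified by LI-COR Western blot (beta-actin loading control) in RIPA lysates of MV4-11 cells after 24 h compound exposure. Degradation reported as DC50, Dmax % at 24 h and SMARCA2 vs SMARCA4 selectivity, each binned into letter codes.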

SMARCA2 [1] = target: T2, SMARCA2 (Homo sapiens, UniProt P51531); experiment: SMARCA2 Western blot degradation in MV4-11 cells; design: SMARCA2/SMARCA4 protein degradation selectivity in MV4-11 cells; endogenous in cells; host or cells: MV4-11; details: for Dmax: MV4-11, MV4-11 cells, read-out: SMARCA2 MSD MV411 degradation 24 h: average Dmax %; for Dmax / DC50 / SMARCA2 MSD MV411 degradation 24 h: average Dmax %: 24 h; for DC50 / Selectivity in MV411 / SMARCA2 MSD MV411 degradation 24 h: average Dmax %: MV4-11 cells; for DC50: read-out: SMARCA2 MSD MV411 degradation 24 h: Mean external-Abs DC50; for Selectivity in MV411: SMARCA2/4 selectivity
SMARCA2 [2] = target: T2, SMARCA2; experiment: MSD SMARCA2 degradation in A549 cell line; details: for Dmax: A549, A549 cells; for Dmax / DC50: 24 h; for DC50 / SMARCA2 MSD A549 degradation 24 h: Average Dmax %: A549 cells; for DC50: read-out: SMARCA2 MSD A549 degradation 24 h: Average external-Abs DC50
How it was run: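 SMARCA2 protein remaining after 24 h exposure of A549 cells (top concentration 1000 nM, 3-fold dilutions) was measured by MSD electrochemiluminescence immunoassay of cell lysates. Results are given as binned DC50 and maximal degradation (Dmax) codes.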

T2 sequence (P51531 whole entry): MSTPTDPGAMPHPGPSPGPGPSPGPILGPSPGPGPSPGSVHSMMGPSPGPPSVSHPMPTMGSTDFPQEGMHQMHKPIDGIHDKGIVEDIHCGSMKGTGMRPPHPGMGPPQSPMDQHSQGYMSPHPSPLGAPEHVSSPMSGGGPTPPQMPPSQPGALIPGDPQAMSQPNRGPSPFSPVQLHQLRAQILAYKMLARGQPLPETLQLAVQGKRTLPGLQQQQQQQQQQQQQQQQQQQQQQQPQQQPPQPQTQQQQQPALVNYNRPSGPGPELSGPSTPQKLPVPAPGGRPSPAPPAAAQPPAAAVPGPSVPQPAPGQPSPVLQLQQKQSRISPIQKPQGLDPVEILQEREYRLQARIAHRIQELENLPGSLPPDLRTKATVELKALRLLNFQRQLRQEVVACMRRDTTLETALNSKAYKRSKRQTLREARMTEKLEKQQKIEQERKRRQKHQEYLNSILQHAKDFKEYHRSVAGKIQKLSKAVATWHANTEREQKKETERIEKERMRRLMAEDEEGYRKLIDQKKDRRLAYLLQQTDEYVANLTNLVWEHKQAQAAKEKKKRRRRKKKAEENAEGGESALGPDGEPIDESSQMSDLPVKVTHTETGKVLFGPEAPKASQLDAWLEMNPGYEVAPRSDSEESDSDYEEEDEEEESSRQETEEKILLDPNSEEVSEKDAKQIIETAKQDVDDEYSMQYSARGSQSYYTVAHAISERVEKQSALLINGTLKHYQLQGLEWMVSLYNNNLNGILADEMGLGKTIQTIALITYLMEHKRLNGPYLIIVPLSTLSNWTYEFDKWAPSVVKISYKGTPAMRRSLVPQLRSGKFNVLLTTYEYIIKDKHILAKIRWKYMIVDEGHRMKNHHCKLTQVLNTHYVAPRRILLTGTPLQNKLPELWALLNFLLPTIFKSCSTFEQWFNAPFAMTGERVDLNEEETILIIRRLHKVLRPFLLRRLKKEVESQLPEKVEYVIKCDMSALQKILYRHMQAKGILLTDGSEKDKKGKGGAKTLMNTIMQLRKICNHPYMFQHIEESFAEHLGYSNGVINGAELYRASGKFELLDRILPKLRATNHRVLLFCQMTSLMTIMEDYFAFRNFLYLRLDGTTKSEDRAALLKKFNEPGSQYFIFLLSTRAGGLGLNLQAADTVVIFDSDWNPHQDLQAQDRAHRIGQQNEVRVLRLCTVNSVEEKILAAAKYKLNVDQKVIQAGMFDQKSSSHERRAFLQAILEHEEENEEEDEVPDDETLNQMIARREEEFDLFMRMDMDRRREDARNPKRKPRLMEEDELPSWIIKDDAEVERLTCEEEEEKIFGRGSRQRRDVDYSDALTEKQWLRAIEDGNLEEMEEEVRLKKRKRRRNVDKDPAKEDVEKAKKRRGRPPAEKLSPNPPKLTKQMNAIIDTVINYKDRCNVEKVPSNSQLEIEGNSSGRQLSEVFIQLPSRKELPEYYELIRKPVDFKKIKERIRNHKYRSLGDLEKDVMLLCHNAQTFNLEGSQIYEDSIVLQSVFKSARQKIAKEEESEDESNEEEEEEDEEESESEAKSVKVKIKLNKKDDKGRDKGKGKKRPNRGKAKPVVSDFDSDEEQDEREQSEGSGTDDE
T1 sequence (P51532 whole entry): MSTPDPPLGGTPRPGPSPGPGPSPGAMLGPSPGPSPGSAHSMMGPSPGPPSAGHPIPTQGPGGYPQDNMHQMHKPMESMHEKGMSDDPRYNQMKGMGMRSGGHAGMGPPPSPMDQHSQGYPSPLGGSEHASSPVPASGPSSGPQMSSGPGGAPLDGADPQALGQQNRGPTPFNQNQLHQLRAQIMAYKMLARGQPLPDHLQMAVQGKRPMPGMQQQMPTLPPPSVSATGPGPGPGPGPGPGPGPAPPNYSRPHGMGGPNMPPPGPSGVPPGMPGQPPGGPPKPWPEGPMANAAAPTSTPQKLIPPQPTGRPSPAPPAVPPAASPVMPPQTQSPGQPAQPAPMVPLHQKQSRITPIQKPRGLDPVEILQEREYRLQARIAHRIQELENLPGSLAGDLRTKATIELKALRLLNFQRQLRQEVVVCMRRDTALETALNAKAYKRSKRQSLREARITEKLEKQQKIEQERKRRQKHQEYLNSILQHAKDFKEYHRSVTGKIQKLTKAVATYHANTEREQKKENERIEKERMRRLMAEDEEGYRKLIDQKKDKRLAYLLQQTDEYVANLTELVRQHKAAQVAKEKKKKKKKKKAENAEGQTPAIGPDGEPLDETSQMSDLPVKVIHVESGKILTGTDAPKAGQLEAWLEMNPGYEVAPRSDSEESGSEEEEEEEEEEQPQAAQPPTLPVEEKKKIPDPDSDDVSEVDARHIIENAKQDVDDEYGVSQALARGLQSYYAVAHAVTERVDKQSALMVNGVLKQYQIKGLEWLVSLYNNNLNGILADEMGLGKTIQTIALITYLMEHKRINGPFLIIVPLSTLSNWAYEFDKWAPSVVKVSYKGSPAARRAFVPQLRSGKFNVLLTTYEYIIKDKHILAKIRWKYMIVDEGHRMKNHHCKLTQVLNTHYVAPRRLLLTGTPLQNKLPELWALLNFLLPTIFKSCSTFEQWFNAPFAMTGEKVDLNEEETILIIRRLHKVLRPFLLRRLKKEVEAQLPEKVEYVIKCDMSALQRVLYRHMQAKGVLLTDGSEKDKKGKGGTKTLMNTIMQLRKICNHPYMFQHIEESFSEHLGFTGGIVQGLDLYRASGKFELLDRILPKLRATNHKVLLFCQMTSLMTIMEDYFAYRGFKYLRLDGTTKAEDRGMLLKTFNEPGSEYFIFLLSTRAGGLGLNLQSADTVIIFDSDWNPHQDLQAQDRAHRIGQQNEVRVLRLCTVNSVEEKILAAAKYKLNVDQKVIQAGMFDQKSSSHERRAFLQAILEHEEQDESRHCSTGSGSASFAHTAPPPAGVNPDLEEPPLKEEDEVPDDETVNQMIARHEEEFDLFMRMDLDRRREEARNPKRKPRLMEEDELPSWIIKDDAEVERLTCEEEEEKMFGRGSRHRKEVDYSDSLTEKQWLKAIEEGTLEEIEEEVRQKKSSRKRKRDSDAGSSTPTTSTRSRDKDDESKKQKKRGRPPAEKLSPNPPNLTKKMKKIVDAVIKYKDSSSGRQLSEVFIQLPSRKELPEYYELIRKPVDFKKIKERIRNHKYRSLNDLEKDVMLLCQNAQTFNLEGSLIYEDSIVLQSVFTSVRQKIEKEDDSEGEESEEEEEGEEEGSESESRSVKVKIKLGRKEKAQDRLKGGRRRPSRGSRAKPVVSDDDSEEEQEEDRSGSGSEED

Row | SMILES | Dmax (SMARCA4) | DC50 (SMARCA4) | Dmax (SMARCA2 [1]) | DC50 (SMARCA2 [1]) | Selectivity in MV411 (SMARCA2 [1]) | Dmax (SMARCA2 [2]) | DC50 (SMARCA2 [2]) | SMARCA4 MSD MV411 degradation 24 h: average Dmax % (SMARCA4) | SMARCA2 MSD MV411 degradation 24 h: average Dmax % (SMARCA2 [1]) | SMARCA2 MSD A549 degradation 24 h: Average Dmax % (SMARCA2 [2])
1 | C#Cc1ccc(CNC(=O)[C@@H]2C[C@@H](O)CN2C(=O)[C@@H](NC(=O)N2CC3(CC(CN4CCC(c5cnc(N6CCc7[nH]c8nnc(-c9ccccc9O)cc8c7[C@H]6C)nc5)CC4)C3)C2)C(C)(C)C)cc1 [I-410] | 70 to 90% | > 100 nM | 70 to 90% | 1 to 10 nM | C (C (10-100 fold)) | > 90% | 10 to 50 nM | – | – | –
2 | C#Cc1ccc(CNC(=O)[C@@H]2C[C@@H](O)CN2C(=O)[C@@H](NC(=O)[C@H]2CCC3(CC2)C[C@H](N2CCC(N4CCC(N5CCN6c7cc(-c8ccccc8O)nnc7NC[C@H]6C5)CC4)CC2)C3)C(C)(C)C)c(F)c1 (stereo partly drawn) [I-176] | < 50% | > 100 nM | 50 to 70% | 10 to 100 nM | C (C (10-100 fold)) | > 90% | > 100 nM | – | – | –
3 | C#Cc1ccc(CNC(=O)[C@@H]2C[C@@H](O)CN2C(=O)[C@@H](NC(=O)[C@H]2CCC3(CC2)C[C@H](N2CCN(c4cnc(N5CCN6c7cc(-c8ccccc8O)nnc7NC[C@H]6C5)nc4)CC2)C3)C(C)(C)CCO)c(Cl)c1 (single isomer, unassigned) [I-311] | 70 to 90% | > 100 nM | 70 to 90% | 1 to 10 nM | C (C (10-100 fold)) | > 90% | 10 to 50 nM | – | – | –
4 | C#Cc1ccc(CNC(=O)[C@@H]2C[C@@H](O)CN2C(=O)[C@H](NC(=O)N2CC3(CC(N4CCC(c5cnc(N6CCc7[nH]c8nnc(-c9ccccc9O)cc8c7[C@H]6C)nc5)CC4)C3)C2)C(C)(C)CCO)c(Cl)c1 (single isomer, unassigned) [I-316] | < 50% | > 100 nM | < 50% | > 100 nM | C (C (10-100 fold)) | < 50% | > 100 nM | – | – | –
5 | Cc1ncsc1-c1ccc(CNC(=O)[C@@H]2C[C@@H](O)CN2C(=O)[C@@H](NC(=O)C2(F)CC2)C(C)(C)C)c(O[C@H]2CC[C@@H](N3CCC(N4CCC(c5cnc(N6CCc7[nH]c8nnc(-c9ccccc9O)cc8c7[C@@H]6C)nc5)CC4)CC3)CC2)c1 (single isomer, unassigned) [I-48] | > 90% | > 100 nM | 50 to 70% | 10 to 100 nM | C (C (10-100 fold)) | 70 to 90% | > 100 nM | – | – | –
6 | C#Cc1ccc([C@H](C)NC(=O)[C@@H]2C[C@@H](O)CN2C(=O)[C@@H](NC(=O)[C@H]2CC3(C2)C[C@H](N2CCC(N4CCC(N5CCN6c7cc(-c8ccccc8O)nnc7NC[C@H]6C5)CC4)CC2)C3)C(C)(C)C)cc1 (single isomer, unassigned) [I-226] | – | > 100 nM | – | 10 to 100 nM | B (B (>100-500 fold)) | – | > 100 nM | D (D (<50% degradation)) | B (B (>70-90% degradation)) | A (A (>90% degradation))
7 | C#Cc1ccc(CNC(=O)[C@@H]2C[C@@H](O)CN2C(=O)[C@@H](NC(=O)N2CC3(CC(N4CCC(c5cnc(N6CCc7[nH]c8nnc(-c9ccccc9O)cc8c7[C@H]6C)nc5)CC4)C3)C2)C(C)(C)CCN2CCN[C@@H](C(=O)O)C2)cc1 [I-342] | < 50% | > 100 nM | < 50% | > 100 nM | C (C (10-100 fold)) | < 50% | > 100 nM | – | – | –
8 | C#Cc1ccc(CNC(=O)[C@@H]2C[C@@H](O)CN2C(=O)[C@@H](NC(=O)N2CCN(C[C@H]3CCN(c4cnc(N5CCc6[nH]c7nnc(-c8ccccc8O)cc7c6[C@H]5C)nc4)C3)CC2)C(C)(C)C)cc1 (single isomer, unassigned) [I-162] | 50 to 70% | > 100 nM | 50 to 70% | 10 to 100 nM | C (C (10-100 fold)) | > 90% | > 100 nM | – | – | –
9 | C#Cc1ccc(CNC(=O)[C@@H]2C[C@@H](O)CN2C(=O)[C@@H](NC(=O)[C@H]2CCC3(CC2)C[C@H](N2CCC(c4cnc(N5CCN6c7cc(-c8ccccc8O)nnc7NC[C@H]6C5)nc4)CC2)C3)C(C)(C)C)c(OCCCOC)c1 (single isomer, unassigned) [I-149] | – | 10 to 100 nM | – | 1 to 10 nM | D (D (<10 fold)) | – | 10 to 50 nM | A (A (>90% degradation)) | A (A (>90% degradation)) | A (A (>90% degradation))
